From patent US20040267028A1, “Preparation and use of pyrrole derivatives for treating obesity” (priority 2001, published 2004)
Where a name gives a salt, the structure may show the parent alone.

Tested on: lean overnight fasted rats
Test: Fasted-refed acute feeding assay (reduction of food intake)
Type: in vivo, rat
Settings: 10 mg/kg p.o., single dose, measured at time points from 30 to 240 minutes
Text: Evaluation of Compound's Efficacy on the Reduction of Food Intake (Suppression of Appetite) in Lean Overnight Fasted Rats
Fasted-Refed Acute Feeding Assay
The purpose of this protocol is to determine the effect of a single dose of an unknown compound on food consumption of lean overnight fasted rats. The fasted-refed rat model is frequently used in the field of obesity to identify compounds with potential for anorectic effects. This animal model has been successfully used in the identification and characterization of the efficacy profile of compounds that are or have been used in the management of body weight in obese humans (see, e.g., Balvet et al., Gen. Pharmacol. 13:293-297, 1982; Grignaschi et al., Br. J. Pharmacol. 127:1190-1194, 1999; McTavish and Heel, Drug 43:713-733, 1992; Rowland et al., Life Sci. 36:2295-2300, 1985). […]
The vehicle test: The rats are grouped based upon their performance on a vehicle test. […] After 1 hour, the spillage is returned to the food jar and the amount of food consumed is determined. […]
The efficacy test: The rats are fasted overnight during the dark phase (total of approx. 16-18 hr). […] Food intake is recorded 30, 60, 90, 180, and 240 minutes post-food return. […] The amount of food consumed is determined for each time point. Difference between treatment group is determined using appropriate statistical analysis.

Structure (SMILES)	food consumption was reduced (relative to the food consumption observed for the vehicle control group)
Cc1c(C(=O)NN2CCCCC2)cc(-c2ccc(Cl)cc2)n1-c1ccccc1Cl [Entry 23, 1-(2-chlorophenyl)-5-(4-chlorophenyl)-2-methyl-N-(1-piperidinyl)-1H-pyrrole-3-carboxamide hydrochloride]	up to 25%
COc1ccc(-c2c(C)c(C(=O)NNc3ccc(C(F)(F)F)cc3)c(C)n2-c2ccccc2Cl)cc1.Cl [Entry 43, 1-(2-chlorophenyl)-5-(4-methoxyphenyl)-2,4-dimethyl-N′-[4-(trifluoromethyl)phenyl]-1H-pyrrole-3-carbohydrazide hydrochloride]	up to 35%
